Assay results as given in paper PMC8115619, “Generation of a chemical genetic model for JAK3” (Scientific Reports, 2021).

Legend:
[1] = tested on: IL-4 induced STAT6 phosphorylation in wild type BMDMs; assay: Inhibitor washout, IL-4 induced STAT6 phosphorylation, wild type BMDMs; assay type: cell-based, mouse; conditions: for inhibition of IL-4 induced STAT6 phosphorylation after inhibitor washout, wild type BMDMs: washed 3 times in PBS, IL-4 30 min to 2 h after washout, 10 μM TL6-144, 100 μM PF-06651600
Protocol: Covalent inhibitors would be predicted to have very slow off rates and therefore inhibition should remain even if the unbound inhibitors are washed out of the cells. To test this, cells were treated with a high concentration of inhibitor for 2 h before being washed 3 times in PBS and then incubated in media without inhibitor for 0.5 to 24 h. If the inhibitor acts via a non-covalent mechanism, inhibition would not be expected to remain following washout from the cells. Ruxolitinib is a non-covalent pan-JAK inhibitor that can inhibit multiple JAK-STAT pathways in macrophages. […] To confirm this was not the case, similar experiments were done in JAK3 Cys905Ser knockin cells. […] Similar experiments were also carried out with PF-06651600. […] As the level of inhibition was lower at 2 h post washout than 30 min the experiment was repeated to look at 4 and 24 h time points for the washout step.
Figure 4 Effect of inhibitor washout on JAK3 inhibition. BMDMs were isolated from wild type and JAK3 Cys905Ser knockin mice. […] The macrophages were then either stimulated with 10 ng/ml IL-4 for 30 min or washed 3 times in PBS and then incubated in media without inhibitor for the indicated times. The cells were then stimulated with IL-4 for 30 min and STAT6 phosphorylation determined by immunoblotting using levels of ERK1/2 as a loading control.
Bone marrow derived macrophages (BMDMs) were cultured as described. Briefly, bone marrow was flushed in PBS from the femurs and tibias of mice. Cells were cultured on bacterial grade plastic for 7 days at 37 °C, 5% CO2. Cells were then detached using Versene (Gibco), re-plated on tissue culture plastic in BMDM media (in DMEM supplemented with 10% heat inactivated FBS (Labtech), 2 mM L-glutamine, 100 U/ml penicillin G, 100 μg/ml streptomycin and 0.25 μg/ml amphotericin, 5 ng/ml M-CSF) and used within 48 h. Where indicated cells were stimulated with 10 ng/ml IL-4, 10 ng/ml GM-CSF, 10 ng/ml IL-10 or 10 ng/ml IFNβ. All cytokines were from PeproTech.
(§1) Cells were lysed directly into SDS sample buffer and aliquots run on 10% polyacrylamide gels using standard methods. Proteins were transferred onto nitrocellulose membranes, and specific proteins were detected by immunoblotting. Antibodies against tyrosine phosphorylated STATs were from Cell Signaling Technology (phospho-STAT1 #9167, phospho-STAT3 #9131, phospho-STAT5 #4322 and phospho-STAT6 #9361). The total ERK1/2 antibody used as a loading control was also from cell Signaling Technology (#4695). HRP-conjugated secondary antibodies were obtained from Pierce. Bands were detected using Clarity ECL reagents from BioRad and imaged on a Licor Odyssey Fc system. Quantification was carried out using Licor Image Studio software. After correction for the ERK1/2 levels to account for loading differences, percentage inhibition was calculated relative to the IL-4 stimulated condition. IC50 values were calculated using the same methods as for the in vitro IC50 values.

[2] = tested on: IL-2 induced STAT5 phosphorylation in spleenocytes; assay: IL-2 induced STAT5 phosphorylation in spleenocytes; assay type: cell-based, mouse; conditions: wild type mice, inhibitor 1 h, 10 ng/ml IL-2
Protocol: (A) Single cell suspensions were prepared from the spleens of wild type mice. […] Cells were then stimulated with 10 ng/ml IL-4 for 30 min and the levels of phosphorylated STAT6 determined by immunoblotting. (B) As (A) except cells were stimulated with 10 ng/ml IL-2 and the levels of phosphorylated STAT5 determined. (C) CD8 T cells were expanded from the lymph nodes of wild type and JAK3 Cys905Ser knockin mice. Cells were rested in the absence of IL-2 for 60 min then incubated with the indicated concentrations of PF-06651600 for a further 30 min before stimulation with 10 ng/ml of IL-2 for 30 min. The levels of phosphorylated STAT5 and total ERK1/2 were then determined.
as §1, with “Antibodies against tyrosine phosphorylated STATs were from Cell Signaling Technology (phospho-STAT1 #9167, phospho-STAT3 #9131, phospho-STAT5 #4322 and phospho-STAT6 #9361). The total ERK1/2 antibody used as a loading control was also from cell Signaling Technology (#4695). HRP-conjugated secondary antibodies were obtained from Pierce.” left out

panel of 139 kinases = assay: In vitro selectivity screen, whole panel; assay type: biochemical; conditions: 1 μM, panel of 139 kinases in vitro
Protocol: (§2) For the in vitro kinase assay, JAK3 (5–20 mU diluted in 50 mM Tris pH 7.5, 0.1 mM EGTA, 0.05% β-mercaptoethanol, 1 mg/ml BSA) was assayed against PDKtide ([…]) in a final volume of 25.5 µl containing 50 mM Tris pH 7.5, 0.1 mM EGTA, 0.05% β-mercaptoethanol, 100 µM substrate peptide, 10 mM magnesium acetate and 0.02 mM [33P-γ-ATP] (50–1000 cpm/pmole) and incubated for 30 min at room temperature. Assays were started by the addition of the ATP and stopped by addition of 5 µl of 0.5 M (3%) orthophosphoric acid and then harvested onto P81 Unifilter plates with a wash buffer of 50 mM orthophosphoric acid. To determine the Km for ATP, assays were run using 1, 5, 10, 20, 50, 100, 200, 400, 500 μM ATP and Km derived by non-linear regression fitting to the Michaelis–Menten equation v = Vmax[S]/(Km + [S]). IC50 values for inhibitors via non-linear regression using a parameter model: Y = Bottom + (Top–Bottom)/(1 + (IC50/X)^HillSlope). Non-linear regression was carried out in Prism (version 8). In vitro selectivity screen was carried out as described previously.

TAO1 = TAO1 (Homo sapiens, UniProt Q7L7X3); assay: Selectivity screen TAO1; assay type: biochemical; conditions: 1 µM inhibitor, mean
Protocol: as §2

MELK = MELK (Homo sapiens, UniProt Q14680); assay: Selectivity screen MELK; assay type: biochemical; conditions: 1 µM inhibitor, mean
Protocol: as §2

TBK1 = TBK1 (Homo sapiens, UniProt Q9UHD2); assay: Selectivity screen TBK1; assay type: biochemical; conditions: 1 µM inhibitor, mean
Protocol: as §2

MAP4K5 = MAP4K5 (Homo sapiens, UniProt Q9Y4K4); assay: Selectivity screen MAP4K5; assay type: biochemical; conditions: 1 µM inhibitor, mean
Protocol: as §2

ERK5 = ERK5 (Homo sapiens, UniProt Q13164); assay: Selectivity screen ERK5; assay type: biochemical; conditions: 1 µM inhibitor, mean
Protocol: as §2

MNK2 = MNK2 (Homo sapiens, UniProt Q9HBH9); assay: Selectivity screen MNK2; assay type: biochemical; conditions: 1 µM inhibitor, mean
Protocol: as §2

PDK1 = PDK1 (Homo sapiens, UniProt O15530); assay: Selectivity screen PDK1; assay type: biochemical; conditions: 1 µM inhibitor, mean
Protocol: as §2

JNK2 = JNK2 (Homo sapiens, UniProt P45984); assay: Selectivity screen JNK2; assay type: biochemical; conditions: 1 µM inhibitor, mean
Protocol: as §2

SIK2 = SIK2 (Homo sapiens, UniProt Q9H0K1); assay: Selectivity screen SIK2; assay type: biochemical; conditions: 1 µM inhibitor, mean
Protocol: as §2

DYRK3 = DYRK3 (Homo sapiens, UniProt O43781); assay: Selectivity screen DYRK3; assay type: biochemical; conditions: 1 µM inhibitor, mean
Protocol: as §2

MSK1 = MSK1 (Homo sapiens, UniProt O75582); assay: Selectivity screen MSK1; assay type: biochemical; conditions: 1 µM inhibitor, mean
Protocol: as §2

ZAP70 = ZAP70 (Homo sapiens, UniProt P43403); assay: Selectivity screen ZAP70; assay type: biochemical; conditions: 1 µM inhibitor, mean
Protocol: as §2

[3] = inhibitor 2 h, 0.5 μM Ruxolitinib

Chain of TAO1 (Q7L7X3 whole entry): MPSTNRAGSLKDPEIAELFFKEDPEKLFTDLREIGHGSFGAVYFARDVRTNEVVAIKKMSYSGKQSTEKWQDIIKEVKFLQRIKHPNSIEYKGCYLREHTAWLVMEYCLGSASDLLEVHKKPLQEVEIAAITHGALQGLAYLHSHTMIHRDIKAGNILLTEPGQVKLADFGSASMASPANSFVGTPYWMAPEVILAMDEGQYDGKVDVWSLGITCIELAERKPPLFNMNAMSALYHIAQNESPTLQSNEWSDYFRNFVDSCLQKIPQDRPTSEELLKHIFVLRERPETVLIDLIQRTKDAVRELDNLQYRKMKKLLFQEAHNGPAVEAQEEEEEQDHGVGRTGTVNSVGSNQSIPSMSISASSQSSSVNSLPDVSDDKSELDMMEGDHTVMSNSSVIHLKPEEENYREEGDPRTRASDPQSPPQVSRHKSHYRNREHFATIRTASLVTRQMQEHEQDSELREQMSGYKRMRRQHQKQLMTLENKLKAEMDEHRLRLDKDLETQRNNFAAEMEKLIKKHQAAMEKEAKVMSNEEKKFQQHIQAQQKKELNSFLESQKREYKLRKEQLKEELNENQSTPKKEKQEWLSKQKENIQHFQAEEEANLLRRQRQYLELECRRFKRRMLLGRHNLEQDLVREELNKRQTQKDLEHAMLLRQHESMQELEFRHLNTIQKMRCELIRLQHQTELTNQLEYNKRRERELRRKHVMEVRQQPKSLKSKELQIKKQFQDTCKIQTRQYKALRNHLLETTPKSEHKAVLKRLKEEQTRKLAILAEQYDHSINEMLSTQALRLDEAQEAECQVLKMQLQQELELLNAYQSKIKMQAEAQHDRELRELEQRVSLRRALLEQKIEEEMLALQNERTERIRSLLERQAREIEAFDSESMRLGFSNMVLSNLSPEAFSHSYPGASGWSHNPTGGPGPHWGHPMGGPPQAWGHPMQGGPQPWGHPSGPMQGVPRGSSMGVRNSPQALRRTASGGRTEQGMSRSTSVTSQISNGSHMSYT
Chain of MELK (Q14680 whole entry): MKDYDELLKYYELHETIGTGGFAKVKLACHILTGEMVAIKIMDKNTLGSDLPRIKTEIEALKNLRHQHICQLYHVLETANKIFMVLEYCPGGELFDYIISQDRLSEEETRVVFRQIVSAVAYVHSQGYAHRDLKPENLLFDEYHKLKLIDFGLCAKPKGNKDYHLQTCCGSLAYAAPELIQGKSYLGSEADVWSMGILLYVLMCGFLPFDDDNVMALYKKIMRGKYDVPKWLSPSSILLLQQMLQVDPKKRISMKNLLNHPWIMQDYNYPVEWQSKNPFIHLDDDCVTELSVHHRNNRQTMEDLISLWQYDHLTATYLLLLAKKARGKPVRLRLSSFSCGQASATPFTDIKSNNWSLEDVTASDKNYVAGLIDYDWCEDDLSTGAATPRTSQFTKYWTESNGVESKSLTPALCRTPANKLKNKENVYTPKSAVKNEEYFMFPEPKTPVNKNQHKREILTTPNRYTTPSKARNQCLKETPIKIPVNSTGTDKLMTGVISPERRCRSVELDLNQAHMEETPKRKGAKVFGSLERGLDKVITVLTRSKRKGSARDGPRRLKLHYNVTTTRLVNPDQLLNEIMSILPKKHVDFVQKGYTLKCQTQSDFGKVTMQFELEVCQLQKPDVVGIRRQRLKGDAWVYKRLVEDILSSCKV
Chain of ZAP70 (P43403 whole entry): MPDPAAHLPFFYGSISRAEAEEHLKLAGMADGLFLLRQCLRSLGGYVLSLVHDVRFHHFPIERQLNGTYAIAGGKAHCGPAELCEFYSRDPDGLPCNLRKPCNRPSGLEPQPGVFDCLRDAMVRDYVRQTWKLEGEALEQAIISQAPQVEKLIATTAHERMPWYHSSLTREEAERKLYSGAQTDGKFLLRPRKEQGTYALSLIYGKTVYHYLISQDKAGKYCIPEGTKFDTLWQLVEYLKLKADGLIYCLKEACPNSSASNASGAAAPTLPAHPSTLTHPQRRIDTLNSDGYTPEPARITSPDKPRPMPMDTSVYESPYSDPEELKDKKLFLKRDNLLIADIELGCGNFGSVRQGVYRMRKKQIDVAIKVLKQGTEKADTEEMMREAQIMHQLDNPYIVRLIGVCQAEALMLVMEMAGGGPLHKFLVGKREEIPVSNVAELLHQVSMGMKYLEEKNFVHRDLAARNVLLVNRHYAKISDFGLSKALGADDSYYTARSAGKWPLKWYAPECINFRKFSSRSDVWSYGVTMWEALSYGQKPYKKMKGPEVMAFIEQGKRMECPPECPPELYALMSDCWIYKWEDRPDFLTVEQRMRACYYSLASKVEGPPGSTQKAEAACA
Chain of MAP4K5 (Q9Y4K4 whole entry): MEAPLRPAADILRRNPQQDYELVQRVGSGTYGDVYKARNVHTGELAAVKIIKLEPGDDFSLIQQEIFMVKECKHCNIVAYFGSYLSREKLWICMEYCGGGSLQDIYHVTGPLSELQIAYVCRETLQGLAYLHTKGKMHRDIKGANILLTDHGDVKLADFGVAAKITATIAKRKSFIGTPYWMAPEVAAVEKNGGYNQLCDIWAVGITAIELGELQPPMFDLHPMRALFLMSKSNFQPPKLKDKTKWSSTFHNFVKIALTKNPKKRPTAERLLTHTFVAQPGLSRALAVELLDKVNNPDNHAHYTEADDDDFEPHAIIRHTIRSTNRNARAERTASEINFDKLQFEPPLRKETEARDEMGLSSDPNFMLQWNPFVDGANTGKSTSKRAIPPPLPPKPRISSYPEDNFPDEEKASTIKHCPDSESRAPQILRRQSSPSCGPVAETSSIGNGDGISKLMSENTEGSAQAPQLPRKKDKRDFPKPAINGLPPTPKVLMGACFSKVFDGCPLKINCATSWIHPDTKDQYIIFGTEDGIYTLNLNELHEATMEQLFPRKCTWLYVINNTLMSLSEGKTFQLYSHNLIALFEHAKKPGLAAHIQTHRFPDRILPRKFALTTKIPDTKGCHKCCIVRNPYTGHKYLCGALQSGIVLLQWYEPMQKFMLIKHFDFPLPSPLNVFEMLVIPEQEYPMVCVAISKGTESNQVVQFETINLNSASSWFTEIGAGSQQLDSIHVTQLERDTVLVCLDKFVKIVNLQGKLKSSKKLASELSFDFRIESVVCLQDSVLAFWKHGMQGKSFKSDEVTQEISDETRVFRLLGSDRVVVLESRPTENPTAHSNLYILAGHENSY
Chain of PDK1 (O15530 whole entry): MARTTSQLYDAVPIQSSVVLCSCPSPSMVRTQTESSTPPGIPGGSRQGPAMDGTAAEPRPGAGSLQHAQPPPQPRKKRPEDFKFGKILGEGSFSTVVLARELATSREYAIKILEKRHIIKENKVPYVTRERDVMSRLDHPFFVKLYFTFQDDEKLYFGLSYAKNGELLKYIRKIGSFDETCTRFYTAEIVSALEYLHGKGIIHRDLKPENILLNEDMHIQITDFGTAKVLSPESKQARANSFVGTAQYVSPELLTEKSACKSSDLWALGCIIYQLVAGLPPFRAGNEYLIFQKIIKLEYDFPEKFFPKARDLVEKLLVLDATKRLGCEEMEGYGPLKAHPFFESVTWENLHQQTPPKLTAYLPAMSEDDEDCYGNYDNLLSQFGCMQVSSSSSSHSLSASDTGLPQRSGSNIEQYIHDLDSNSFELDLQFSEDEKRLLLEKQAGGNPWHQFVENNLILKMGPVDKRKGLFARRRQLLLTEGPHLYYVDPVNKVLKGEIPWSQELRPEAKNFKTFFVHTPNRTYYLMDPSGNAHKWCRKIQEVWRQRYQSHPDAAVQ
Chain of SIK2 (Q9H0K1 whole entry): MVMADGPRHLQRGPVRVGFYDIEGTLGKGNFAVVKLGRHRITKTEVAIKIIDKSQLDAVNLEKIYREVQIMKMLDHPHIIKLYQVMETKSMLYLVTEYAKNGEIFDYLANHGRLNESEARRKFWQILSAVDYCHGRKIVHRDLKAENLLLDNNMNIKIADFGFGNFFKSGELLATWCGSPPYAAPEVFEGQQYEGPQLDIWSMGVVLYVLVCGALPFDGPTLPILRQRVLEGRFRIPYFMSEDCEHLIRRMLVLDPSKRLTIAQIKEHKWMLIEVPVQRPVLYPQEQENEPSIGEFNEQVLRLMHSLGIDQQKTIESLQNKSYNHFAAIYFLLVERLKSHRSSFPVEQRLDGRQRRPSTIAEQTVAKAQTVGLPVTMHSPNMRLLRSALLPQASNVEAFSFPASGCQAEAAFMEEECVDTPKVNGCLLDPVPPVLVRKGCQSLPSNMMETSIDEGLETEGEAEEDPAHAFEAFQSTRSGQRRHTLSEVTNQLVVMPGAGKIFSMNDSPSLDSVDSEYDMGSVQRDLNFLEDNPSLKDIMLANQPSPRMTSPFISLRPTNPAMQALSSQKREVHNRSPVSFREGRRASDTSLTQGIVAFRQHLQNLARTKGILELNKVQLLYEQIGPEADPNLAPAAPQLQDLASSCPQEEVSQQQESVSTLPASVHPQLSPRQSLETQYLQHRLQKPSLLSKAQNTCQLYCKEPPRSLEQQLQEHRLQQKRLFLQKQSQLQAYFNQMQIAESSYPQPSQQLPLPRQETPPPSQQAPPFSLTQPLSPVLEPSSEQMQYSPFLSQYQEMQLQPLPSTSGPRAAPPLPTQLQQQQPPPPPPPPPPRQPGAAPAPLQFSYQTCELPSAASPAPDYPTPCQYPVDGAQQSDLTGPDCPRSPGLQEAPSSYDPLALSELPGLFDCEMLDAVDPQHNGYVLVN
Chain of JNK2 (P45984 whole entry): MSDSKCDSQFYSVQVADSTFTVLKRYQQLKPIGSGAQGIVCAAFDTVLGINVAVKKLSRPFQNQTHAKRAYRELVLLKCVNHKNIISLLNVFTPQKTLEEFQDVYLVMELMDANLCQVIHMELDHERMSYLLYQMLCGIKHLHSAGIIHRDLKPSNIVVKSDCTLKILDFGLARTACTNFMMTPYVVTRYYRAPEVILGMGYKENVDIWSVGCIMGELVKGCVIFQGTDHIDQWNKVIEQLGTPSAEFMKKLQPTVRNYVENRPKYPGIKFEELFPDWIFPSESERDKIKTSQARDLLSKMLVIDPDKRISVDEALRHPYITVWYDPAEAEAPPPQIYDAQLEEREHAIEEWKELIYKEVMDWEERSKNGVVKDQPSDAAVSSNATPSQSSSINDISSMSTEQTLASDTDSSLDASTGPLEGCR

Row | Structure (SMILES) | inhibition of IL-4 induced STAT6 phosphorylation 24 h after inhibitor washout, wild type BMDMs ([1]; 100 μM PF-06651600 for 2 h, washout, 24 h time point) | inhibition of IL-4 induced STAT6 phosphorylation after inhibitor washout, wild type BMDMs [1, 3] | block of IL-2 induced STAT5 phosphorylation in spleenocytes [2] | block of IL-4 induced STAT6 phosphorylation without washout, wild type BMDMs ([1]; inhibitor 2 h, no washout, 0.5 μM Ruxolitinib, 10 μM TL6-144) | number of other kinases inhibited by more than 80% (panel of 139 kinases) | activity remaining in the presence of the inhibitor: TAO1 (TAO1) | activity remaining in the presence of the inhibitor: MELK (MELK) | activity remaining in the presence of the inhibitor: TBK1 (TBK1) | activity remaining in the presence of the inhibitor: MAP4K5 (MAP4K5) | activity remaining in the presence of the inhibitor: ERK5 (ERK5) | activity remaining in the presence of the inhibitor: MNK2 (MNK2) | activity remaining in the presence of the inhibitor: PDK1 (PDK1) | activity remaining in the presence of the inhibitor: JNK2 (JNK2) | activity remaining in the presence of the inhibitor: SIK2 (SIK2) | activity remaining in the presence of the inhibitor: DYRK3 (DYRK3) | activity remaining in the presence of the inhibitor: MSK1 (MSK1) | activity remaining in the presence of the inhibitor: ZAP70 (ZAP70)
1 | C=CC(=O)N1C[C@H](Nc2ncnc3[nH]ccc23)CC[C@@H]1C [PF-06651600, 1-((2S,5R)-5-((7H-Pyrrolo[2,3-d]pyrimidin-4-yl)amino)-2-methylpiperidin-1-yl)prop-2-en-1-one, reference compound] | Some inhibition was retained | retained | able to block |  |  |  |  |  |  |  |  |  |  |  |  |  | 
2 | C=CC(=O)Nc1cccc(CNc2nc(Nc3ccc(N4CCN(C)CC4)cc3OC)ncc2Cl)c1 [TL6-144] |  | much lower than in control cells |  | completely blocked | 4 | 99 | 69 | 78 | 83 | 87 | 70 | 101 | 98 | 58 | 95 | 86 | 86
3 | C=CC(=O)Nc1cccc(CNc2nc(Nc3ccc(N4CCOCC4)cc3)ncc2Cl)c1 [TL8-52] |  |  | able to block |  | 8 | 91 | 66 | 11 | 63 | 63 | 66 | 86 | 95 | 31 | 95 | 54 | 77
